# Data from patent publication US8481592B2, “Uses of sesquiterpene derivatives” (Kwang Dong Pharm Co., Ltd., priority 2008, dated 2013).
# Marks after values point to notes of the source that are not given here.
# Columns and labels:
# C. elegans = test: Anti-obesity effect (fat content by Nile red staining) in C. elegans; assay type: in vivo, Caenorhabditis elegans; parameters: key to Fat content: A low fat content was indicated by +1; a high fat content was assigned with +4; details: for Fat content: Nile red staining
# Description: Using a dissecting microscope (×50 magnification), C. elegans at the 4th stage (L4, the imaginal stage) was transferred to 3 ml of a cholesterol-supplemented S-medium (containing NaCl, K2HPO4, KH2PO4, cholesterol, citrate, trace metals, CaCl2 and MgSO4), and 100 μl of E. coli OP50 (OD600=0.2) liquid-cultured overnight before 1 day of experiment was added thereto. The Pterocarpus indicus fraction sample was added to the liquid media containing C. elegans, followed by rotary culture in a dark room at 16° C. and 100 rpm. The water-insoluble sample was dissolved in DMSO and added to the culture media. The final concentration of DMSO was adjusted below 1%. […] 24 hours after the sample was added to C. elegans, 30 μl of a Nile red dye at a concentration of 10 μg/ml was added (final concentration of Nile red was adjusted to 100 ng/ml) to the media, followed by continuous rotary culture for 2 days.
# In order to arrest the locomotory movement of C. elegan, 20 μl of 0.3% NaN3 was dropped on a slide glass to which 100 μl of C. elegans cultured in the presence of Nile red for 2 days was added. Under a fluorescence microscope, adipocytes of C. elegans emitting red fluorescence in a dark room were micrographed and compared with the control group to thereby determine the amount of fat. A low fat content was indicated by +1, whereas a high fat content was assigned with +4. Adult (L4 stage) C. elegans immediately prior to egg-laying were used in this Example. Therefore, the eggs were hatched after sample treatment and most of adult C. elegans were killed at 3 day post-treatment. A fat content was examined in C. elegans which had newly hatched and grown.
# [1] = Body weight gain and total visceral fat weight in mice fed high fat diet containing sesquiterpene compound; assay type: in vivo, mouse; details: HFD with 0.2% compound in diet, C57BL mice, 8 weeks
# Description: Obesity-inducible diet used in the present experiment was high fat diet (HFD: 40% fat calorie, 17 g Lard+3% maize oil/100 g diet) developed by the present inventors and the composition of diet containing sesquiterpene compounds was equal to that of HFD but each 8 sesquiterpene compounds with a concentration of 0.2% was included in diet [cedryl acetate-containing diet, (−)-α-cedrene-containing diet, (+)-β-cedrene-containing diet, cedrene epoxide-containing diet, methyl cedryl ether-containing diet, methyl cedryl ketone-containing diet, cedrenol-containing diet and (+)-cedrol-containing diet]. The composition of diet is described in the following Table 5.
# 6-old-week C57BL/63 male mice were adapted to laboratory environment during one week and divided into HFD control and 8 test groups according to randommized block design. […] Diet was supplied with water at 10-11 o'clock every morning, and intake amount of diet and body weight was measured every day and once of three days, respectively. The body weight was measure at 2 hrs after removing feed bin to block sudden change of body weight according to feed intake, and feed efficiency was calculated by dividing body weight gain by amount of total intake amount of diet during total experimental period which is from initial day supplying experimental diet to sacrificed day. After experimental animals were fasted for above 12 hrs, they were anesthetized with diethylether, and their blood, liver and visceral fat tissues (epididymal fat, perirenal fat, mesenteric fat and abdominal fat) were collected. And then, they were washed with 0.1 M phosphate-buffered saline (pH 7.4), and their weights were measured. Blood taken from abdominal aorta was centrifuged at 1,000×g for 15 min to separate plasma.
# [2] = Biochemical index of blood and liver tissue in mice fed high fat diet containing sesquiterpene compound; assay type: in vivo, mouse; details: HFD with compound in diet, 8 weeks
# Description: The composition of diet is described in the following Table 5. […] After experimental animals were fasted for above 12 hrs, they were anesthetized with diethylether, and their blood, liver and visceral fat tissues (epididymal fat, perirenal fat, mesenteric fat and abdominal fat) were collected. And then, they were washed with 0.1 M phosphate-buffered saline (pH 7.4), and their weights were measured. […] Concentration of total Plasma cholesterol, triglyceride and glucose was measured twice according to commercially available measurement kit (Bio Clinical system), respectively. Insulin concentration was measured by ELISA using mouse insulin kit (Shibayaki, Japan). […] The homogenate was mixed with 5 ml of chloroform:methanol solution (2:1, v/v), and centrifuged at 1,000×g for 10 min to separate lower phase. […] Three ml of chloroform:methanol:0.05% CaCl2 solution (3:48:47, v/v/v) were added to the resulting lower phase, and thoroughly mixed for 1 min. The mixture was centrifuged at 1,000×g for 10 min. The final lower phase was completely dried on nitrogen gas, and the dried lipid was dissolved in 1 ml of methanol to use analysis of lipid component. Triglyceride concentration in lipid extracts from liver tissues was measured according to commercially available measurement kit (Bio Clinical system) equal to that used in analysis of plasma.
# [3] = Physical characteristics of the compounds (solubility, stability); details: easily dissolved in organic solvent having lower polarity than ethanol, but not water
smiles,measurement,setting,value
"CC1=CCC23CC1C(C)(CO)C2CCC3C (stereo not shown) [cedrenol, Cedrenol]",inhibitory effect on adipogenesis,C. elegans; low concentration of 1 μg/ml,notably inhibitory effect on adipogenesis
same,Fat content,C. elegans; sample concentration 1 μg/ml,+2
same,Fat content,C. elegans; sample concentration 10 μg/ml,+1
same,Fat content,C. elegans; sample concentration 100 μg/ml,+1
same,Body weight gain,[1],9.51 ± 1.47 g/8 weeks
same,total visceral fat weight,"[1]; epididymal, perirenal, mesenteric and abdominal fat",57.8 ± 4.02 mg/g body weight
same,Liver Triglyceride,[2],25.0 ± 1.81 µmol/g
same,IRI (insulin resistance index),[2]; fasted,0.71 ± 0.09* 10^−3 pmol insulin × mmol glucose × L^−2
same,Plasma Glucose,[2]; fasted,7.24 ± 0.56 mmol/L
same,Plasma Insulin,[2]; fasted,0.58 ± 0.07 ng/mL
same,Plasma Total cholesterol,[2]; fasted,2.42 ± 0.22 mmol/L
same,Plasma Triglyceride,[2]; fasted,1.20 ± 0.10 mmol/L
same,Solubility,[3],Fat soluble
